Test results taken from patent publication US20250019381A1, “PROCESS FOR THE […] OF 6-((3S,4S)-4-METHYL-1-(PYRIMIDIN-2-[…])PYRROLIDIN-3-YL)-3-(TETRAHYDROPYRAN-4-YL-7H-IMIDAZO[1,5-a]PYRAZIN-8-ONE” (Cardurion Pharmaceuticals, Inc., priority 2017, published 2025).

Tests used:
PDE1 = PDE1 inhibition IC50; type: biochemical
[1] = Blood Brain Barrier penetration: plasma and brain concentration; type: in vivo
PDE9 = PDE9 (Homo sapiens (Human), UniProt O76083); type: biochemical
[2] = Stability study of drug substance in polyethylene/aluminum pouches; type: physicochemical; conditions: solid, ambient temperature and 40° C.-45° C. (no humidity control), 3-month period
Method: A stability study has been completed on Compound P3.1. Samples of Compound P3.1 were aliquoted into double-walled polyethylene pouches, which were tied off and then heat-scaled in an aluminum pouch. Samples were stored at ambient temperature and at 40° C.-45° C. (no humidity control) with testing performed over a 3-month period.

[3] = Stability study of solution in purified water; type: physicochemical; conditions: approximately 40 mg/mL in purified water, refrigerated and ambient, 8 days
Method: In another stability study, Compound P3.1 was dissolved at approximately 40 mg/mL of purified water and evaluated for purity over a period of 8 days. Samples were stored at both refrigerated and ambient conditions, and tested at T=0, Day 2, and Day 8.

Sequence of PDE9 (O76083 whole entry): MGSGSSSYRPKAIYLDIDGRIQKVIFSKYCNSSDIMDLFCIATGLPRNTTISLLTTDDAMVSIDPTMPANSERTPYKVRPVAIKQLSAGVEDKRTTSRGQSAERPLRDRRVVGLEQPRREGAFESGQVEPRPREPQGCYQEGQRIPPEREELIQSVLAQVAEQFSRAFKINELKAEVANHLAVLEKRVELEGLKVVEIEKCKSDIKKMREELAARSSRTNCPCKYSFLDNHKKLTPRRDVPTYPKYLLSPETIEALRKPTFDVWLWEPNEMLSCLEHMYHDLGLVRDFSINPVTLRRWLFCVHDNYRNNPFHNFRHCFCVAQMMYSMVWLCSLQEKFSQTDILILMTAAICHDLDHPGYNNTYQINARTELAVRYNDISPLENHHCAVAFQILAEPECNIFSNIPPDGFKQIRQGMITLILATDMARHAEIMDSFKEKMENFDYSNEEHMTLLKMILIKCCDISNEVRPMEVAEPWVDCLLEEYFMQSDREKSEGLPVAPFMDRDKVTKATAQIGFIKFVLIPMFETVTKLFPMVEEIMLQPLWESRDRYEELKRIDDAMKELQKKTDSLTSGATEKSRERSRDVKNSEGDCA

| SMILES | IC50 (PDE1) [nM] | Brain concentration after 30 minutes ([1]; 30 min) | Brain concentration after 120 minutes ([1]; 120 min) | Plasma concentration after 120 minutes ([1]; plasma, 120 min) | also measured |
| --- | --- | --- | --- | --- | --- |
| C[C@@H]1CN(Cc2ncccn2)C[C@H]1c1nc2c(cnn2C2CCOCC2)c(=O)[nH]1 (relative stereo) | 2500 |  |  |  |  |
| O=c1[nH]c(CN2CC(Oc3ccncc3)C2)cn2c(-c3ccc(F)cc3)ncc12 [Compound P1] |  |  |  |  | Brain/Plasma ratio after 30 minutes ([1]; 30 min): 0.06; Brain/Plasma ratio after 120 minutes ([1]; 120 min): 0.08 |
| O=c1[nH]c(CN2CC(Oc3cccnc3)C2)cn2c(C3CCOCC3)ncc12 [Compound P2] |  | Below | Below |  |  |
| C[C@@H]1CN(Cc2ncccn2)C[C@H]1c1cn2c(C3CCOCC3)ncc2c(=O)[nH]1 [Compound P3.1, (3S,4S)-6-(4-methyl-1-pyrimidin-2-ylmethyl-pyrrolidin-3-yl)-3-(tetrahydro-pyran-4-yl)-7H-imidazo[1,5-a]pyrazin-8-one] | 3000 | 30 min.: 67 ng/mL | 120 min.: 7 ng/mL | 120 min.: 226 ng/mL | IC50 (PDE9): 10 nM; Plasma concentration after 30 minutes ([1]; plasma, 30 min): 30 min.: 1620 ng/mL; Changes to appearance or purity of the material on storage [2]: no changes to appearance or purity; Change to purity of the compound or appearance of the solution [3]: No significant change |
| O=c1[nH]c(CN2CC(OCc3ccc(F)cc3)C2)nn2c(C3CCOCC3)ncc12 [Compound P4] |  |  |  | 120 min.: 352 ng/mL |  |
